Laboratory results as given in patent US20100196355A1, “Immunophilin Ligands and Methods for Modulating Immunophilin and Calcium Channel Activity” (Wyeth, priority 2007, published 2010).

Columns and labels:
His6-tagged FKBP52 = experiment: [3H]-FK506 binding on Ni-chelated FLASH plate; parameters: species or system human; settings: for binding selectivity for FKBP52 versus FKBP12, higher than that of rapamycin: relative to rapamycin
Procedure: Reactions were carried out in triplicate at 25° C. for 30 min. Kd were calculated using methods described by Carreras (Anal. Biochem. 298, 57-61 (2001)).

[1] = system: rat cortical neuron cultures; experiment: Transcriptional profiling of cortical neuron cultures; type: cell-based; settings: 10 μM
Procedure: Cortical neuron cultures were prepared from E16 rat embryos. After plating for 24 hrs, cultures were treated with 10 μM immunophilin ligands and the corresponding vehicle. After treatment for 4 hrs, 12 hrs, 24 hrs and 48 hrs, cells were lysed. Total RNA from each sample was extracted with the RNEASY® Mini Kit (QIAGEN®). Double stranded cDNA was synthesized from 2 μg of each RNA sample using the […]® System (INVITROGEN®), purified, transcribed in vitro to prepare biotinylated cRNA using T7 RNA polymerase in the presence of biotin labeled UTP and CTP. The fragmented cRNAs were hybridized to a Rat Genome 230 2.0 […]® (AFFYMETRIX®, Santa Clara, Calif.) as recommended by the manufacturer. Hybridized arrays were stained according to manufacture protocols on a Fluidics Station 450 and subsequently scanned on an AFFYMETRIX® scanner 3000. The raw data was generated using AFFYMETRIX® MAS 5.0 Software. Transcriptional profiling data were analyzed in Ingenuity.

CO[C@H]1C[C@@H]2CC[C@@H](C)[C@@](O)(O2)C(=O)C(=O)N2CCCCC2C(=O)O[C@H]([C@H](C)C[C@@H]2CC[C@@H](O)[C@H](OC)C2)CC(=O)[C@H](C)/C=C(\C)[C@@H](O)[C@@H](OC)C(=O)[C@H](C)C[C@H](C)C2CC[C@H](/C=C/1C)ON2c1ccccc1 (some centres unmarked) [Rapamycin analogue II, 9,27-dihydroxy-3-{2-[4-hydroxy-3-methoxycyclohexyl]-1-methylethyl}-10,21-dimethoxy-6,8,12,14,20,26-hexamethyl-37-phenyl-4,9,10,12,13,14,15,16,17,18,21,22,23,24,25,26,27,32,33,34,34a-henicosahydro-3H-23,27-epoxy-18,15-(epoxyimino)pyrido[2,1-c][1,4]oxazacyclohentriacontine-1,5,11,28,29(6H, 31H)-pentone]
Kd(FKBP12)/Kd(FKBP52) (His6-tagged FKBP52): 229 | binding selectivity for FKBP52 versus FKBP12, higher than that of rapamycin (His6-tagged FKBP52): 687 fold | binding selectivity for FKBP52 versus FKBP12, higher than that of rapamycin (His6-tagged FKBP52; listed as rapamycin analogue II): at least 600 fold | fold change vs DMSO, ACTA1 ([1]; ACTA1): −1.6 fold | fold change vs DMSO, ACTA2 ([1]; ACTA2): 1.37 fold | fold change vs DMSO, AKAP5 ([1]; AKAP5): −1.5 fold | fold change vs DMSO, ASPH ([1]; ASPH): −3.27 fold | fold change vs DMSO, ATP2A2 ([1]; ATP2A2): 2 fold | fold change vs DMSO, ATP2B1 ([1]; ATP2B1): 1.81 fold | fold change vs DMSO, ATP2B3 ([1]; ATP2B3): −1.45 fold | fold change vs DMSO, ATP2C1 ([1]; ATP2C1): −1.32 fold | fold change vs DMSO, CABIN1 ([1]; CABIN1): 1.34 fold | fold change vs DMSO, CACNA1B ([1]; CACNA1B): −1.45 fold | fold change vs DMSO, CACNA1C ([1]; CACNA1C): 1.82 fold | fold change vs DMSO, CACNA1D ([1]; CACNA1D): −1.28 fold | fold change vs DMSO, CACNA2D1 ([1]; CACNA2D1): 5.73 fold | fold change vs DMSO, CACNB1 ([1]; CACNB1): −1.14 fold | fold change vs DMSO, CACNG2 ([1]; CACNG2): −2 fold | fold change vs DMSO, CACNG3 ([1]; CACNG3): −2.46 fold | fold change vs DMSO, CALM1 ([1]; CALM1): −1.63 fold | fold change vs DMSO, CALM2 ([1]; CALM2): −1.33 fold | fold change vs DMSO, CALM3 ([1]; CALM3): −1.52 fold | fold change vs DMSO, CALR ([1]; CALR): 1.19 fold | fold change vs DMSO, CAMK1 ([1]; CAMK1): −1.43 fold | fold change vs DMSO, CAMK1G ([1]; CAMK1G): −2.26 fold | fold change vs DMSO, CAMK2A ([1]; CAMK2A): −4.13 fold | fold change vs DMSO, CAMK2B ([1]; CAMK2B): −1.88 fold | fold change vs DMSO, CAMK2D ([1]; CAMK2D): −1.48 fold | fold change vs DMSO, CAMK4 ([1]; CAMK4): −1.33 fold | fold change vs DMSO, CHP ([1]; CHP): 1.54 fold | fold change vs DMSO, CREBBP ([1]; CREBBP): 5.84 fold | fold change vs DMSO, CYP27B1 ([1]; CYP27B1): −1.38 fold | fold change vs DMSO, DHCR7 ([1]; DHCR7): 1.73 fold | fold change vs DMSO, DSCR1 ([1]; DSCR1): −1.82 fold | fold change vs DMSO, DSCR1L1 ([1]; DSCR1L1): −4.73 fold | fold change vs DMSO, EBP ([1]; EBP): 1.32 fold | fold change vs DMSO, FDFT1 ([1]; FDFT1): 1.89 fold | fold change vs DMSO, FDPS ([1]; FDPS): 2.07 fold | fold change vs DMSO, GRIA1 ([1]; GRIA1): −2.16 fold | fold change vs DMSO, GRIA2 ([1]; GRIA2): 2.71 fold | fold change vs DMSO, GRIN1 ([1]; GRIN1): −2.8 fold | fold change vs DMSO, GRIN2B ([1]; GRIN2B): −1.57 fold | fold change vs DMSO, GRIN3A ([1]; GRIN3A): −2.94 fold | fold change vs DMSO, GRINA ([1]; GRINA): −1.2 fold | fold change vs DMSO, HDAC5 ([1]; HDAC5): 1.8 fold | fold change vs DMSO, HDAC6 ([1]; HDAC6): −1.13 fold | fold change vs DMSO, HDAC7A ([1]; HDAC7A): 1.27 fold | fold change vs DMSO, HMGCR ([1]; HMGCR): 2.26 fold | fold change vs DMSO, HTR3A ([1]; HTR3A): −1.64 fold | fold change vs DMSO, IDI1 ([1]; IDI1): 2.85 fold | fold change vs DMSO, ITPR3 ([1]; ITPR3): −1.93 fold | fold change vs DMSO, LSS ([1]; LSS): 13.19 fold | fold change vs DMSO, MAPK1 ([1]; MAPK1): 1.38 fold | fold change vs DMSO, MAPK3 ([1]; MAPK3): −1.19 fold | fold change vs DMSO, MVD ([1]; MVD): 1.81 fold | fold change vs DMSO, MVK ([1]; MVK): 1.6 fold | fold change vs DMSO, MYH1 ([1]; MYH1): −2.17 fold | fold change vs DMSO, MYH6 ([1]; MYH6): −5.93 fold | fold change vs DMSO, MYH7 ([1]; MYH7): −5.88 fold | fold change vs DMSO, MYL6B ([1]; MYL6B): −1.68 fold | fold change vs DMSO, NQO1 ([1]; NQO1): 1.64 fold | fold change vs DMSO, PMVK ([1]; PMVK): 1.25 fold | fold change vs DMSO, PPP3CB ([1]; PPP3CB): −1.27 fold | fold change vs DMSO, PPP3CC ([1]; PPP3CC): −1.27 fold | fold change vs DMSO, PPP3R1 ([1]; PPP3R1): −1.44 fold | fold change vs DMSO, PRKAG1 ([1]; PRKAG1): −1.24 fold | fold change vs DMSO, PRKAR1A ([1]; PRKAR1A): −1.1 fold | fold change vs DMSO, PRKAR1B ([1]; PRKAR1B): −3.18 fold | fold change vs DMSO, PRKAR2A ([1]; PRKAR2A): −1.23 fold | fold change vs DMSO, PRKAR2B ([1]; PRKAR2B): −1.5 fold | fold change vs DMSO, RAP1B ([1]; RAP1B): −1.33 fold | fold change vs DMSO, SC5DL ([1]; SC5DL): 1.94 fold | fold change vs DMSO, SQLE ([1]; SQLE): 1.9 fold | fold change vs DMSO, TPM1 ([1]; TPM1): −2.83 fold | fold change vs DMSO, TPM3 ([1]; TPM3): −1.99 fold | fold change vs DMSO, TRPC1 ([1]; TRPC1): −1.08 fold | fold change vs DMSO, TRPC3 ([1]; TRPC3): −1.95 fold | fold change vs DMSO, TRPC4 ([1]; TRPC4): −5.42 fold | fold change vs DMSO, TRPV6 ([1]; TRPV6): 1.73 fold | fold change, PLAU ([1]; plasminogen activator (PLAU)): −10 fold
